Target: T1, Sortilin (Mus musculus, UniProt Q6PHU5)
T1 construct: purchased Bio-Techne Ltd 2934-ST-050
T1 sequence (Q6PHU5 76-753 limits assumed): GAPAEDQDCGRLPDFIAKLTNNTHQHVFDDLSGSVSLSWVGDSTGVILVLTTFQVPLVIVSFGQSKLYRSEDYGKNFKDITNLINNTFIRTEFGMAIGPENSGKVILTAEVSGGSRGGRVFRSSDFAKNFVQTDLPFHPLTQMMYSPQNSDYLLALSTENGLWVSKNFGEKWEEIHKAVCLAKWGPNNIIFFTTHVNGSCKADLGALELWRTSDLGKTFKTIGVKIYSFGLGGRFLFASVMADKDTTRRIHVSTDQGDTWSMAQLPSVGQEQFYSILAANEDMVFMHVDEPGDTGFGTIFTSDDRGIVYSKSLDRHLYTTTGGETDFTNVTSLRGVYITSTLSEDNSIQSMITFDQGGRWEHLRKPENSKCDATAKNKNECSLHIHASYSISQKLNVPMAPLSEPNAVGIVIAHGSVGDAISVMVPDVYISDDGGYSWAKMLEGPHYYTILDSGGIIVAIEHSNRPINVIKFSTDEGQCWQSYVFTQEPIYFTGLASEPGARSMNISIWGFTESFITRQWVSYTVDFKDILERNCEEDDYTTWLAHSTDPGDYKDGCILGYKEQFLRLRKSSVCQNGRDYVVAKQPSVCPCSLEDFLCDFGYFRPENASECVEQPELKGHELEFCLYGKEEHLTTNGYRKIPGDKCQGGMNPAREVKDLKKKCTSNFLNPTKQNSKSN
Assay: Creoptix (GCI) binding kinetics, mouse Sortilin
Conditions: Species Mouse, screened at 1 µM, 25 degrees Celsius
Experimental: Creoptix (GCI) method - using SEQ ID NO.4 (Murine sortillin)
A protein, bound to a surface, is bathed in a solution containing potential ligands giving rise to binding kinetics to generate Kon and Koff rates, as well as a Kd.
All buffers described were filtered using a 0.2µm filter (Product number: 10300461, Nalgene) and degassed for 15 minutes prior to use.
A flow cell temperature of 25 degrees Celsius was used throughout the experiment.
A 4PCH chip was conditioned across all flow cells using 0.2 X concentration running buffer (running buffer composition: 1XHBS-N, pH 7.4, 3.4 mM EDTA, 1% DMSO) using pre-set conditioning wizard (WAVE control software) injecting: 0.1 M borate, 1 M NaCl (pH 9) followed by three start-up injections of 0.2 X running buffer.
A buffer exchange was performed and 1x running buffer (1XHBS-N, pH 7.4, 3.4 mM EDTA, 1% DMSO) used during the immobilisation procedure: An initial injection of EDC/NHS (mixed in 1:1 ratio) was performed across all 4-flow cells to activate the surface for amine coupling of ligands.
Recombinant Sortilin aliquots were thawed quickly by hand and centrifuged at 13,300 rpm for 10 minutes. A 10 µg/ml protein solution was then made in pH 5.0 acetate and injected once for 20 minutes over flow-cells 2, 3 and 4 for human, human (flow cells 2 & 3), and mouse Sortilin respectively followed by a 60 second dissociation period.
A final 7-minute passivation injection of 50 mM tris was used across all flow cells.
A flow rate of 10 µl/min was used for all conditioning and immobilisation cycles.
Compounds were screened at 1 µM using the in-built 'intermediate binders' settings: 100 ul/min, 45 s baseline, 25 s association, 300 s dissociation, with blanks every 5th sample and a DMSO correction (1.5 % DMSO at the start and end of the experiment as well as every 20 cycles. An acquisition rate of 10 Hz was used throughout the experiment.
Compounds were screened at a final assay concentration of 1 µM and a final DMSO concentration was 1 %. To achieve this, compounds were diluted in DMSO from 10 mM stocks to 100 µM (100 x final assay concentration) then diluted 1:100 in running buffer which contained no DMSO to establish a final assay concentration of compound of 1 µM and a final DMSO concentration of 1 % [DMSO].
Compounds and DMSO were mixed by plate shaking at 1000 rpm for 60 seconds using a Bioshake instrument.
A flow rate of 100 µl/min was used throughout the experiment.
Data was evaluated using the RAPID kinetic analysis tool in the GCI WAVE_control software with data fitted using a standard 1:1 kinetic BioModel.

Structure (SMILES) | Kd (Form of Compound Free acid) [nM] | Kd (Form of Compound Mesylate salt) [nM]
CC(C)(C)CC[C@H](NCc1ccc2c(c1)COCC2)C(=O)O [Example 3, (S)-2-((isochroman-7-ylmethyl)amino)-5,5-dimethylhexanoic acid] | 65 | 
C[C@@H](N[C@@H](CCC(C)(C)C)C(=O)O)c1ccc2c(c1)OCCC2 [Example 9] | 60 | 59.5
C[C@H](N[C@@H](CCC(C)(C)C)C(=O)O)c1ccc2c(c1)CCCO2 [Example 50] | 258 | 258
C[C@@H](N[C@@H](CCC(C)(C)C)C(=O)O)c1ccc2c(c1)CCCO2 [Example 52] |  | 129

Reference: patent EP4342530A1, “SORTILIN MODULATORS” (Insusense ApS, priority 2022, dated 2024)
